From ChEMBL document CHEMBL2429811, “Novel selective and potent inhibitors of malaria parasite dihydroorotate dehydrogenase: discovery and optimization of dihydrothiophenone derivatives” (J Med Chem, 2013)

test system: not listed separately; experiment: Oral bioavailability in Sprague-Dawley rat at 10 mg/kg; assay type: ADME, organism-based; conditions: in vivo

Structure (SMILES) | bioavailability [%]
CCOC(=O)C1=C(Nc2ccc3ccccc3c2)SCC1=O | 3.02
CCOC(=O)C1=C(Nc2ccc3ccccc3c2)OCC1=O | 40

test system: not listed separately; experiment: Tmax in Sprague-Dawley rat at 10 mg/kg, po; assay type: ADME, organism-based; design: dose 10 mg/kg, route oral; conditions: in vivo

Structure (SMILES) | Tmax [min]
CCOC(=O)C1=C(Nc2ccc3ccccc3c2)SCC1=O | 15
CCOC(=O)C1=C(Nc2ccc3ccccc3c2)OCC1=O | 17.4

test system: not listed separately; experiment: Cmax in Sprague-Dawley rat at 10 mg/kg, po; assay type: ADME, organism-based; design: dose 10 mg/kg, route oral; conditions: in vivo

Structure (SMILES) | Cmax [ng/mL]
CCOC(=O)C1=C(Nc2ccc3ccccc3c2)SCC1=O | 25.5
CCOC(=O)C1=C(Nc2ccc3ccccc3c2)OCC1=O | 609

test system: not listed separately; experiment: AUC (0 to last) in Sprague-Dawley rat at 10 mg/kg, po; assay type: ADME, organism-based; design: time 0 - last, dose 10 mg/kg, route oral; conditions: plasma

Structure (SMILES) | AUC(0-t) [ng·h/mL]
CCOC(=O)C1=C(Nc2ccc3ccccc3c2)SCC1=O | 39.3
CCOC(=O)C1=C(Nc2ccc3ccccc3c2)OCC1=O | 791

test system: not listed separately; experiment: Half life in Sprague-Dawley rat at 10 mg/kg, po; assay type: ADME, organism-based; design: dose 10 mg/kg, route oral; conditions: in vivo

Structure (SMILES) | half-life [min]
CCOC(=O)C1=C(Nc2ccc3ccccc3c2)SCC1=O | 154
CCOC(=O)C1=C(Nc2ccc3ccccc3c2)OCC1=O | 45

test system: not listed separately; experiment: Volume of distribution in Sprague-Dawley rat at 1 mg/kg, iv; assay type: ADME, organism-based; design: dose 1 mg/kg, route intravenous; conditions: in vivo

Structure (SMILES) | Vd [L/kg]
CCOC(=O)C1=C(Nc2ccc3ccccc3c2)SCC1=O | 3.35
CCOC(=O)C1=C(Nc2ccc3ccccc3c2)OCC1=O | 1.91

test system: not listed separately; experiment: Half life in Sprague-Dawley rat at 1 mg/kg, iv; assay type: ADME, organism-based; design: dose 1 mg/kg, route intravenous; conditions: in vivo

Structure (SMILES) | half-life [min]
CCOC(=O)C1=C(Nc2ccc3ccccc3c2)SCC1=O | 18
CCOC(=O)C1=C(Nc2ccc3ccccc3c2)OCC1=O | 15.6

test system: not listed separately; experiment: Clearance in Sprague-Dawley rat at 1 mg/kg, iv; assay type: ADME, organism-based; design: dose 1 mg/kg, route intravenous; conditions: in vivo

Structure (SMILES) | clearance [mL/min/kg]
CCOC(=O)C1=C(Nc2ccc3ccccc3c2)SCC1=O | 129
CCOC(=O)C1=C(Nc2ccc3ccccc3c2)OCC1=O | 84.7

target: Dihydroorotate dehydrogenase (quinone), mitochondrial (Homo sapiens, UniProt Q02127); experiment: Inhibition of N-terminal His10-tagged human DHODH (Met30 to Arg396) expressed in Escherichia coli BL21 (DE3) using dihydroorotate as substrate measured every 30 secs for 6 mins by DCIP dye-based assay; conditions: not given
Sequence (Q02127 whole entry): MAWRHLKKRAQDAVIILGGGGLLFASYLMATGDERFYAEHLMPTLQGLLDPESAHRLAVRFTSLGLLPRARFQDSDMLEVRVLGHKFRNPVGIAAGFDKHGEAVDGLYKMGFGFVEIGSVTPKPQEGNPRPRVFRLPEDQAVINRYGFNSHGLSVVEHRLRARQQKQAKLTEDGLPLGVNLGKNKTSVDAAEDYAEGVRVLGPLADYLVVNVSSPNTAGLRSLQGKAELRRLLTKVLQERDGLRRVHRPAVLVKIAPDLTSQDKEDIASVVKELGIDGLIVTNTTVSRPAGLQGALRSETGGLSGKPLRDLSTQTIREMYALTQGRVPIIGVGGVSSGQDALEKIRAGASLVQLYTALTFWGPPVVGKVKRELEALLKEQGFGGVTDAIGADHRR

Structure (SMILES) | IC50 [nM]
CCOC(=O)C1=C(Nc2ccc3c(c2)CCCC3)OCC1=O | > 50000
Cc1ccc(NC2=C(C(=O)OCC3CC3)C(=O)CS2)cc1C | > 50000
CCCCNC(=O)C1=C(Nc2ccc(C)c(C)c2)SCC1=O | 4420
CCOC(=O)C1=C(Nc2ccccc2)SCC1=O | > 50000
CCNC(=O)C1=C(Nc2ccc(C)c(C)c2)SCC1=O | > 50000
CCOC(=O)C1=C(Nc2ccc(C(C)(C)C)cc2)SCC1=O | > 50000
CCCOC(=O)C1=C(Nc2ccc3ccccc3c2)SCC1=O | > 50000
O=C1CSC(Nc2ccc3ccccc3c2)=C1C(=O)NCC1CC1 | > 50000
CCOC(=O)C1=C(Nc2ccc(C)c(C)c2)SCC1=O | > 50000
CCOC(=O)C1=C(Nc2ccc3c(c2)CCC3)OCC1=O | > 50000
CCOC(=O)C1=C(Nc2ccc3c(c2)c2ccccc2n3CC)SCC1=O | > 50000
CCCCOC(=O)C1=C(Nc2ccc(C)c(C)c2)SCC1=O | > 50000
CCOC(=O)C1=C(Nc2cnc3ccccc3c2)SCC1=O | > 50000
CCOC(=O)C1=C(Nc2ccc(Br)c(C(F)(F)F)c2)SCC1=O | > 50000
CCOC(=O)C1=C(Nc2ccc(Br)cc2C)SCC1=O | > 50000
CCOC(=O)C1=C(Nc2ccc3c(c2)CCC3)SCC1=O | > 50000
CCOC(=O)C1=C(Nc2ccc(Cl)c(C(F)(F)F)c2)SCC1=O | > 50000
CCCNC(=O)C1=C(Nc2ccc3ccccc3c2)SCC1=O | > 50000
CCOC(=O)C1=C(Nc2ccc3c(c2)CCCC3)SCC1=O | 12000
O=C(O)C1=C(Nc2ccc3ccccc3c2)SCC1=O | > 50000
Cc1ccc(NC2=CC(=O)CS2)cc1C | > 50000
CCOC(=O)C1=C(Nc2ccc3ccccc3c2)SCC1=O | > 50000
CCOC(=O)C1=C(Nc2ccc3ccccc3c2)OCC1=O | > 50000

target: T1, Dihydroorotate dehydrogenase (Plasmodium falciparum, UniProt Q54A96); experiment: Inhibition of Plasmodium falciparum DHODH (Phe158 to Ser569) expressed in Escherichia coli BL21 using dihydroorotate as substrate measured every 30 secs for 6 mins by DCIP dye-based assay; conditions: not given
T1 sequence (Q54A96 whole entry): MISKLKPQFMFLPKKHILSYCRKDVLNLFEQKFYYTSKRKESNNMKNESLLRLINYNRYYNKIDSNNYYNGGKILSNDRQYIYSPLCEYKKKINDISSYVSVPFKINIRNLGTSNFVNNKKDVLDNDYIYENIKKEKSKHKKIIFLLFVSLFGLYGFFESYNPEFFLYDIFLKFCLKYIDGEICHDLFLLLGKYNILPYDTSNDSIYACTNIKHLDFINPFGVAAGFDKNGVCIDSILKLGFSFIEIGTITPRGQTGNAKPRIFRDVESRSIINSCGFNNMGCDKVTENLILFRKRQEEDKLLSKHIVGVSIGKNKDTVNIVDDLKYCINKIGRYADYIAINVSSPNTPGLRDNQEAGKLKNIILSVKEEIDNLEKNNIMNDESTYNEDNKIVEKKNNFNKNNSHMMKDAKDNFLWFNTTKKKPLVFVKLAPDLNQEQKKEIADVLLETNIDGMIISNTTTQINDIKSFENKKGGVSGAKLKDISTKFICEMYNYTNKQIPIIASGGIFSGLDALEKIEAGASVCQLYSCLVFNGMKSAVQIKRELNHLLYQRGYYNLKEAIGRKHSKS

Structure (SMILES) | IC50 [nM]
CCOC(=O)C1=C(Nc2ccc3c(c2)CCCC3)OCC1=O | 18
Cc1ccc(NC2=C(C(=O)OCC3CC3)C(=O)CS2)cc1C | 4160
CCCCNC(=O)C1=C(Nc2ccc(C)c(C)c2)SCC1=O | 5730
CCOC(=O)C1=C(Nc2ccccc2)SCC1=O | > 50000
CCNC(=O)C1=C(Nc2ccc(C)c(C)c2)SCC1=O | 39500
CCOC(=O)C1=C(Nc2ccc(C(C)(C)C)cc2)SCC1=O | 227
CCCOC(=O)C1=C(Nc2ccc3ccccc3c2)SCC1=O | 951
O=C1CSC(Nc2ccc3ccccc3c2)=C1C(=O)NCC1CC1 | > 50000
CCOC(=O)C1=C(Nc2ccc(C)c(C)c2)SCC1=O | 256
CCOC(=O)C1=C(Nc2ccc3c(c2)CCC3)OCC1=O | 65
CCOC(=O)C1=C(Nc2ccc3c(c2)c2ccccc2n3CC)SCC1=O | 392
CCCCOC(=O)C1=C(Nc2ccc(C)c(C)c2)SCC1=O | 2350
CCOC(=O)C1=C(Nc2cnc3ccccc3c2)SCC1=O | 351
CCOC(=O)C1=C(Nc2ccc(Br)c(C(F)(F)F)c2)SCC1=O | 1620
CCOC(=O)C1=C(Nc2ccc(Br)cc2C)SCC1=O | > 50000
CCOC(=O)C1=C(Nc2ccc3c(c2)CCC3)SCC1=O | 851
CCOC(=O)C1=C(Nc2ccc(Cl)c(C(F)(F)F)c2)SCC1=O | 751
CCCNC(=O)C1=C(Nc2ccc3ccccc3c2)SCC1=O | > 50000
CCOC(=O)C1=C(Nc2ccc3c(c2)CCCC3)SCC1=O | 92
O=C(O)C1=C(Nc2ccc3ccccc3c2)SCC1=O | 1240
Cc1ccc(NC2=CC(=O)CS2)cc1C | 11400
CCOC(=O)C1=C(Nc2ccc3ccccc3c2)SCC1=O | 20
CCOC(=O)C1=C(Nc2ccc3ccccc3c2)OCC1=O | 6

test system: Plasmodium falciparum; experiment: microbe, parasite or virus in culture; conditions: Dd2, 72 h
Description: Antiplasmodial activity against chloroquine-resistant Plasmodium falciparum Dd2 infected in erythrocytes assessed as parasite growth inhibition after 72 hrs by SYBR green 1 dye-based fluorometric analysis

Structure (SMILES) | IC50 [nM]
CCOC(=O)C1=C(Nc2ccc3c(c2)CCCC3)OCC1=O | 76
Cc1ccc(NC2=C(C(=O)OCC3CC3)C(=O)CS2)cc1C | 2630
CCCCNC(=O)C1=C(Nc2ccc(C)c(C)c2)SCC1=O | 2780
CCOC(=O)C1=C(Nc2ccccc2)SCC1=O | 6560
CCNC(=O)C1=C(Nc2ccc(C)c(C)c2)SCC1=O | 6260
CCOC(=O)C1=C(Nc2ccc(C(C)(C)C)cc2)SCC1=O | 767
CCCOC(=O)C1=C(Nc2ccc3ccccc3c2)SCC1=O | 1660
O=C1CSC(Nc2ccc3ccccc3c2)=C1C(=O)NCC1CC1 | > 20000
CCOC(=O)C1=C(Nc2ccc(C)c(C)c2)SCC1=O | 1320
CCOC(=O)C1=C(Nc2ccc3c(c2)CCC3)OCC1=O | 373
CCOC(=O)C1=C(Nc2ccc3c(c2)c2ccccc2n3CC)SCC1=O | 1510
CCCCOC(=O)C1=C(Nc2ccc(C)c(C)c2)SCC1=O | 889
CCOC(=O)C1=C(Nc2cnc3ccccc3c2)SCC1=O | 290
CCOC(=O)C1=C(Nc2ccc(Br)c(C(F)(F)F)c2)SCC1=O | 5540
CCOC(=O)C1=C(Nc2ccc(Br)cc2C)SCC1=O | > 20000
CCOC(=O)C1=C(Nc2ccc3c(c2)CCC3)SCC1=O | 1570
CCOC(=O)C1=C(Nc2ccc(Cl)c(C(F)(F)F)c2)SCC1=O | 3150
CCCNC(=O)C1=C(Nc2ccc3ccccc3c2)SCC1=O | 3550
CCOC(=O)C1=C(Nc2ccc3c(c2)CCCC3)SCC1=O | 315
O=C(O)C1=C(Nc2ccc3ccccc3c2)SCC1=O | 1050
Cc1ccc(NC2=CC(=O)CS2)cc1C | 2500
CCOC(=O)C1=C(Nc2ccc3ccccc3c2)SCC1=O | 57
CCOC(=O)C1=C(Nc2ccc3ccccc3c2)OCC1=O | 18

test system: Plasmodium falciparum; experiment: microbe, parasite or virus in culture; conditions: 3D7, 72 h
Description: Antiplasmodial activity against chloroquine-sensitive Plasmodium falciparum 3D7 infected in erythrocytes assessed as parasite growth inhibition after 72 hrs by SYBR green 1 dye-based fluorometric analysis

Structure (SMILES) | IC50 [nM]
CCOC(=O)C1=C(Nc2ccc3c(c2)CCCC3)OCC1=O | 57
Cc1ccc(NC2=C(C(=O)OCC3CC3)C(=O)CS2)cc1C | 3530
CCCCNC(=O)C1=C(Nc2ccc(C)c(C)c2)SCC1=O | 2700
CCOC(=O)C1=C(Nc2ccccc2)SCC1=O | 5900
CCNC(=O)C1=C(Nc2ccc(C)c(C)c2)SCC1=O | 8470
CCOC(=O)C1=C(Nc2ccc(C(C)(C)C)cc2)SCC1=O | 1520
CCCOC(=O)C1=C(Nc2ccc3ccccc3c2)SCC1=O | 890
O=C1CSC(Nc2ccc3ccccc3c2)=C1C(=O)NCC1CC1 | 12400
CCOC(=O)C1=C(Nc2ccc(C)c(C)c2)SCC1=O | 1990
CCOC(=O)C1=C(Nc2ccc3c(c2)CCC3)OCC1=O | 495
CCOC(=O)C1=C(Nc2ccc3c(c2)c2ccccc2n3CC)SCC1=O | 1230
CCCCOC(=O)C1=C(Nc2ccc(C)c(C)c2)SCC1=O | 745
CCOC(=O)C1=C(Nc2cnc3ccccc3c2)SCC1=O | 253
CCOC(=O)C1=C(Nc2ccc(Br)c(C(F)(F)F)c2)SCC1=O | 5610
CCOC(=O)C1=C(Nc2ccc(Br)cc2C)SCC1=O | > 20000
CCOC(=O)C1=C(Nc2ccc3c(c2)CCC3)SCC1=O | 1400
CCOC(=O)C1=C(Nc2ccc(Cl)c(C(F)(F)F)c2)SCC1=O | 2190
CCCNC(=O)C1=C(Nc2ccc3ccccc3c2)SCC1=O | 3480
CCOC(=O)C1=C(Nc2ccc3c(c2)CCCC3)SCC1=O | 169
O=C(O)C1=C(Nc2ccc3ccccc3c2)SCC1=O | 1860
Cc1ccc(NC2=CC(=O)CS2)cc1C | 1910
CCOC(=O)C1=C(Nc2ccc3ccccc3c2)SCC1=O | 77
CCOC(=O)C1=C(Nc2ccc3ccccc3c2)OCC1=O | 15
